Experimental data: PubChem BioAssay AID1963847 (Molecular Pharmacology Branch, DTP, NCI, 2024)

Tested on: 415267-285-R-J2-PDC complex spheroid viability
Experiment: Anticancer human tumor 415267-285-R-J2-PDC patient-derived breast carcinoma cell line growth inhibition [POLQ]
Conditions: for IC50: curve of first compound; for viability, T/C: stronger effect = lower value
In short: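 PDC + HUVEC + MSC complex spheroids; POLQ inhibitors ± partner drugs; top conc. at/near clinical Cmax, else 10 microM (SN-38 1 microM), half-log dilutions; 37 degrees C, 5% CO2.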

[1] = second compound 0.0316 µM, first compound 0.0316 µM
[2] = second compound 0.0316 µM, first compound 0.1 µM
[3] = second compound 0.0316 µM, first compound 0.316 µM
[4] = second compound 0.0316 µM, first compound 1 µM
[5] = second compound 0.0316 µM, first compound 3.16 µM
[6] = second compound 0.0316 µM, first compound 10 µM
[7] = second compound 0.1 µM, first compound 0.0316 µM
[8] = second compound 0.1 µM, first compound 0.1 µM
[9] = second compound 0.1 µM, first compound 0.316 µM
[10] = second compound 0.1 µM, first compound 1 µM
[11] = second compound 0.1 µM, first compound 3.16 µM
[12] = second compound 0.1 µM, first compound 10 µM
[13] = second compound 0.316 µM, first compound 0.0316 µM
[14] = second compound 0.316 µM, first compound 0.1 µM
[15] = second compound 0.316 µM, first compound 0.316 µM
[16] = second compound 0.316 µM, first compound 1 µM
[17] = second compound 0.316 µM, first compound 3.16 µM
[18] = second compound 0.316 µM, first compound 10 µM
[19] = second compound 1 µM, first compound 0.0316 µM
[20] = second compound 1 µM, first compound 0.1 µM
[21] = second compound 1 µM, first compound 0.316 µM
[22] = second compound 1 µM, first compound 1 µM
[23] = second compound 1 µM, first compound 3.16 µM
[24] = second compound 1 µM, first compound 10 µM
[25] = second compound 3.16 µM, first compound 0.0316 µM
[26] = second compound 3.16 µM, first compound 0.1 µM
[27] = second compound 3.16 µM, first compound 0.316 µM
[28] = second compound 3.16 µM, first compound 1 µM
[29] = second compound 3.16 µM, first compound 3.16 µM
[30] = second compound 3.16 µM, first compound 10 µM
[31] = second compound 10 µM, first compound 0.0316 µM
[32] = second compound 10 µM, first compound 0.1 µM
[33] = second compound 10 µM, first compound 0.316 µM
[34] = second compound 10 µM, first compound 1 µM
[35] = second compound 10 µM, first compound 3.16 µM
[36] = second compound 10 µM, first compound 10 µM
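Note: spheroids exposed to compounds for one week before readout.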
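Throughout, for viability, T/C: luminescence used as stand-in measure of viable cells; 100% = DMSO vehicle control viability.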

Q: For `CC(C)n1c(=O)n(C)c2cnc3cc(F)c(-c4ccc(OCCCN5CCCCC5)nc4)cc3c21` + Nc1ccc(C#CCN(C(=O)Cc2ncc(C(F)(F)F)cc2C(F)(F)F)c2ccc(F)cc2)nn1, which IC50 (second compound 0.0316 µM) is on record?
A: > 10000 nM

Q: What about the IC50 (second compound 0.1 µM) of the same molecule?
A: > 10000 nM

Q: And the IC50 (second compound 0.316 µM)?
A: > 10000 nM

Q: And the IC50 (second compound 1 µM)?
A: > 10000 nM

Q: And the IC50 (second compound 3.16 µM)?
A: > 10000 nM

Q: What about the IC50 (second compound 10 µM) of the same molecule?
A: > 10000 nM

Q: And the viability, T/C [1]?
A: 102%

Q: And the viability, T/C [2]?
A: 107%

Q: And the viability, T/C [3]?
A: 105%

Q: What about the viability, T/C [4] of the same molecule?
A: 122%

Q: And the viability, T/C [5]?
A: 104%

Q: What about the viability, T/C [6] of the same molecule?
A: 103%

Q: And the viability, T/C [7]?
A: 103%

Q: And the viability, T/C [8]?
A: 105%

Q: And the viability, T/C [9]?
A: 108%

Q: What about the viability, T/C [10] of the same molecule?
A: 96.1%

Q: What about the viability, T/C [11] of the same molecule?
A: 101%

Q: What about the viability, T/C [12] of the same molecule?
A: 97.6%

Q: What about the viability, T/C [13] of the same molecule?
A: 102%

Q: What about the viability, T/C [14] of the same molecule?
A: 113%

Q: And the viability, T/C [15]?
A: 101%

Q: And the viability, T/C [16]?
A: 105%

Q: What about the viability, T/C [17] of the same molecule?
A: 103%

Q: And the viability, T/C [18]?
A: 108%

Q: What about the viability, T/C [19] of the same molecule?
A: 102%

Q: What about the viability, T/C [20] of the same molecule?
A: 105%

Q: What about the viability, T/C [21] of the same molecule?
A: 96.4%

Q: What about the viability, T/C [22] of the same molecule?
A: 101%

Q: And the viability, T/C [23]?
A: 111%

Q: What about the viability, T/C [24] of the same molecule?
A: 108%

Q: What about the viability, T/C [25] of the same molecule?
A: 101%

Q: What about the viability, T/C [26] of the same molecule?
A: 107%

Q: And the viability, T/C [27]?
A: 110%

Q: What about the viability, T/C [28] of the same molecule?
A: 111%

Q: What about the viability, T/C [29] of the same molecule?
A: 108%

Q: And the viability, T/C [30]?
A: 115%

Q: And the viability, T/C [31]?
A: 108%

Q: What about the viability, T/C [32] of the same molecule?
A: 109%

Q: And the viability, T/C [33]?
A: 117%

Q: What about the viability, T/C [34] of the same molecule?
A: 126%

Q: What about the viability, T/C [35] of the same molecule?
A: 106%

Q: And the viability, T/C [36]?
A: 117%

Q: With `CC1COCCN1c1cc(C2(S(C)(=N)=O)CC2)nc(-c2ccnc3[nH]ccc23)n1` (stereo unspecified) + Nc1ccc(C#CCN(C(=O)Cc2ncc(C(F)(F)F)cc2C(F)(F)F)c2ccc(F)cc2)nn1 as the molecule, how does the IC50 (second compound 0.0316 µM) read?
A: 541 nM

Q: What about the IC50 (second compound 0.1 µM) of the same molecule?
A: 514 nM

Q: And the IC50 (second compound 0.316 µM)?
A: 592 nM

Q: And the IC50 (second compound 1 µM)?
A: 537 nM

Q: And the IC50 (second compound 3.16 µM)?
A: 559 nM

Q: And the IC50 (second compound 10 µM)?
A: 527 nM

Q: What about the viability, T/C [1] of the same molecule?
A: 106%

Q: And the viability, T/C [2]?
A: 113%

Q: And the viability, T/C [3]?
A: 81.3%

Q: And the viability, T/C [4]?
A: 14.2%

Q: And the viability, T/C [5]?
A: 5.34%

Q: What about the viability, T/C [6] of the same molecule?
A: 3.83%

Q: What about the viability, T/C [7] of the same molecule?
A: 94.3%

Q: And the viability, T/C [8]?
A: 108%

Q: And the viability, T/C [9]?
A: 75%

Q: And the viability, T/C [10]?
A: 15.4%

Q: And the viability, T/C [11]?
A: 5.4%

Q: And the viability, T/C [12]?
A: 3.91%

Q: What about the viability, T/C [13] of the same molecule?
A: 104%

Q: And the viability, T/C [14]?
A: 101%

Q: And the viability, T/C [15]?
A: 92.6%

Q: And the viability, T/C [16]?
A: 14.3%

Q: And the viability, T/C [17]?
A: 5.2%

Q: And the viability, T/C [18]?
A: 3.58%

Q: And the viability, T/C [19]?
A: 104%

Q: What about the viability, T/C [20] of the same molecule?
A: 95%

Q: What about the viability, T/C [21] of the same molecule?
A: 81.9%

Q: What about the viability, T/C [22] of the same molecule?
A: 12.5%

Q: And the viability, T/C [23]?
A: 6.5%

Q: What about the viability, T/C [24] of the same molecule?
A: 2.93%

Q: What about the viability, T/C [25] of the same molecule?
A: 102%

Q: And the viability, T/C [26]?
A: 104%

Q: What about the viability, T/C [27] of the same molecule?
A: 87.3%

Q: What about the viability, T/C [28] of the same molecule?
A: 12%

Q: And the viability, T/C [29]?
A: 5.15%

Q: What about the viability, T/C [30] of the same molecule?
A: 4.26%

Q: And the viability, T/C [31]?
A: 111%

Q: And the viability, T/C [32]?
A: 91.2%

Q: And the viability, T/C [33]?
A: 80.8%

Q: And the viability, T/C [34]?
A: 11.4%

Q: And the viability, T/C [35]?
A: 5.02%

Q: And the viability, T/C [36]?
A: 4.34%

Q: `O=c1[nH]cc(F)c(=O)[nH]1` + Nc1ccc(C#CCN(C(=O)Cc2ncc(C(F)(F)F)cc2C(F)(F)F)c2ccc(F)cc2)nn1 was tested. Which IC50 (second compound 0.0316 µM) did it give?
A: 435 nM

Q: What about the IC50 (second compound 0.1 µM) of the same molecule?
A: 262 nM

Q: And the IC50 (second compound 0.316 µM)?
A: 283 nM

Q: What about the IC50 (second compound 1 µM) of the same molecule?
A: 307 nM

Q: And the IC50 (second compound 3.16 µM)?
A: 268 nM

Q: What about the IC50 (second compound 10 µM) of the same molecule?
A: 309 nM

Q: What about the viability, T/C [1] of the same molecule?
A: 101%

Q: And the viability, T/C [2]?
A: 93%

Q: What about the viability, T/C [3] of the same molecule?
A: 57.5%

Q: And the viability, T/C [4]?
A: 21.4%

Q: What about the viability, T/C [5] of the same molecule?
A: 29.9%

Q: And the viability, T/C [6]?
A: 40.1%

Q: What about the viability, T/C [7] of the same molecule?
A: 86.4%

Q: And the viability, T/C [8]?
A: 85.5%

Q: And the viability, T/C [9]?
A: 43%

Q: What about the viability, T/C [10] of the same molecule?
A: 20.9%

Q: And the viability, T/C [11]?
A: 30%

Q: What about the viability, T/C [12] of the same molecule?
A: 38.5%

Q: And the viability, T/C [13]?
A: 93.6%

Q: What about the viability, T/C [14] of the same molecule?
A: 97%

Q: What about the viability, T/C [15] of the same molecule?
A: 45.1%

Q: What about the viability, T/C [16] of the same molecule?
A: 24.4%

Q: And the viability, T/C [17]?
A: 24.6%

Q: And the viability, T/C [18]?
A: 46.4%

Q: What about the viability, T/C [19] of the same molecule?
A: 97%

Q: And the viability, T/C [20]?
A: 92.7%

Q: What about the viability, T/C [21] of the same molecule?
A: 49.1%

Q: What about the viability, T/C [22] of the same molecule?
A: 27.1%

Q: And the viability, T/C [23]?
A: 30.4%

Q: And the viability, T/C [24]?
A: 35.4%

Q: What about the viability, T/C [25] of the same molecule?
A: 106%

Q: And the viability, T/C [26]?
A: 90.7%

Q: And the viability, T/C [27]?
A: 44.5%

Q: And the viability, T/C [28]?
A: 22.4%

Q: What about the viability, T/C [29] of the same molecule?
A: 24.1%

Q: And the viability, T/C [30]?
A: 42.3%

Q: And the viability, T/C [31]?
A: 113%

Q: And the viability, T/C [32]?
A: 87%

Q: What about the viability, T/C [33] of the same molecule?
A: 52.5%

Q: What about the viability, T/C [34] of the same molecule?
A: 26.5%

Q: What about the viability, T/C [35] of the same molecule?
A: 26.6%

Q: And the viability, T/C [36]?
A: 39%
